Data set [1] is described as follows: Compound was tested for toxicity in P388 tumored mice. It is filed as organism-based. The note with it: mouse, in vivo.
For data set [2], the species on record is Mus musculus. Conditions: in vivo.
Description: Logarithm of toxic activity (1/lethal dose) in mice bearing P388 leukemia on chronic regimen (Q 1-9)
The nature of data set [3]: Compound was tested for toxicity in non tumored mice. The format is organism-based. Conditions: mouse, in vivo.
Data set [4] has as its system Mus musculus. Nature of the data set: Percent increase in life-span against in vivo P388 murine leukemia at a dose 0.25 mg/kg in trail 2. It is filed as functional.
Data set [5] relates to Mus musculus. Description: Percent increase in life-span against in vivo P388 murine leukemia at a dose 0.12 mg/kg in trail 1. It is filed as functional.
Data set [6] has as its system Mus musculus. Nature of the data set: Percent increase in life-span against in vivo P388 murine leukemia at a dose 0.12 mg/kg in trail 2. The format is functional.
In data set [7] the test system is Mus musculus. Description: Percent increase in life-span against in vivo P388 murine leukemia at a dose 0.06 mg/kg in trail 1. It is filed as functional.
Data set [8] deals with Mus musculus. Nature of the data set: Percent increase in life-span against in vivo P388 murine leukemia at a dose 0.5 mg/kg in trail 1. It is filed as functional.
Data set [9] concerns Mus musculus. Nature of the data set: Percent increase in life-span against in vivo P388 murine leukemia at a dose 0.06 mg/kg in trail 2. The format is functional.
Data set [10] has as its system Mus musculus. Nature of the data set: Percent increase in life-span against in vivo P388 murine leukemia at a dose 0.5 mg/kg in trail 2. The format is functional.
Data set [11] relates to Mus musculus. Nature of the data set: Percent increase in life-span against in vivo P388 murine leukemia at a dose 0.25 mg/kg in trail 1. It is filed as functional.
The nature of a further data set: physchem. The note with it: octanol/water.
Data set [12] deals with Mus musculus. Description: Percent increase in life-span against in vivo P388 murine leukemia at a dose 3.12 mg/kg in trail 2. It is filed as functional.
Data set [13] deals with Mus musculus. Description: Percent increase in life-span against in vivo P388 murine leukemia at a dose 1.56 mg/kg in trail 1. It is filed as functional.
Data set [14] concerns Mus musculus. Nature of the data set: Percent increase in life-span against in vivo P388 murine leukemia at a dose 0.78 mg/kg in trail 1. The format is functional.
In data set [15] the test system is Mus musculus. Nature of the data set: Percent increase in life-span against in vivo P388 murine leukemia at a dose 12.5 mg/kg in trail 2. It is filed as functional.
The test system of data set [16] is Mus musculus. Description: Percent increase in life-span against in vivo P388 murine leukemia at a dose 0.78 mg/kg in trail 2. It is filed as functional.
Data set [17] concerns Mus musculus. Description: Percent increase in life-span against in vivo P388 murine leukemia at a dose 1.56 mg/kg in trail 2. The format is functional.
Data set [18] has as its system Mus musculus. Nature of the data set: Percent increase in life-span against in vivo P388 murine leukemia at a dose 0.39 mg/kg) in trail 1. It is filed as functional.
The test system of data set [19] is Mus musculus. Nature of the data set: Percent increase in life-span against in vivo P388 murine leukemia at a dose 3.12 mg/kg in trail 1. It is filed as functional.
Data set [20] has as its system Mus musculus. Description: Percent increase in life-span against in vivo P388 murine leukemia at a dose 6.25 mg/kg in trail 1. It is filed as functional.
Data set [21] deals with Mus musculus. Description: Percent increase in life-span against in vivo P388 murine leukemia at a dose 0.39 mg/kg in trail 2. The format is functional.
Data set [22] relates to Mus musculus. Nature of the data set: Percent increase in life-span against in vivo P388 murine leukemia at a dose 6.25 mg/kg in trail 2. It is filed as functional.

SMILES strings stand for the structures.

Description for physchem: Partition coefficient (logP)

As for `COc1cc2c(c(OC)c1OC)-c1ccc(SC)c(=O)cc1[C@@H](N)CC2`, the LD50 in data set [1] came out at 69 mg/kg; in data set [3] it was 177 mg/kg. Moreover, in the data set filed under Mus musculus [2], the “Log 1/LD50” value is 3.75.

On to `COc1cc2c(c(OC)c1OC)-c1ccc(OC)c(=O)cc1[C@@H](N)CC2` [DEACETYLCOLCHICINE], for which the “Log 1/LD50” value in the data set listed under Mus musculus [2] came to 3.71.

As for `COc1cc2c(c(OC)c1OC)-c1ccc(SCc3ccccc3)c(=O)cc1[C@@H](NC(C)=O)CC2`, the “Log 1/LD50” value in the data set listed under Mus musculus [2] is 4.22.

Turning to `CN[C@H]1CCc2cc(OC)c(OC)c(OC)c2-c2ccc(OC)c(=O)cc21` [DEMECOLCINE], the “Log 1/LD50” value in the data set listed under Mus musculus [2] came out at 3.63.

In the case of `COc1cc2c(c(OC)c1OC)-c1ccc(OC)c(=O)cc1[C@@H](NC(C)=O)CC2` [COLCHICINE], the increase in lifespan (ILS) at 0.25 mg/kg in the data set on Mus musculus [4] is 58%; with Mus musculus [11], 46%. In addition, the increase in life span (ILS) at 0.12 mg/kg stood at 33% with Mus musculus [5] and 40% in the data set on Mus musculus [6]. In addition, the increase in life span (ILS) at 0.06 mg/kg in the data set on Mus musculus [7] was 27%; with Mus musculus [9] it was 24%. For the same compound, the ILS at 0.5 mg/kg in the data set on Mus musculus [8] came out at 78%; with Mus musculus [10], 89%. In addition, the figures for the LD50 in data set [1] and in data set [3] were 1.4 mg/kg and 1.6 mg/kg, respectively. In addition, the “Log 1/LD50” value in the data set filed under Mus musculus [2] stood at 5.46.

As for `COc1cc2c(c(OC)c1OC)-c1ccc(OC)c(=O)cc1[C@@H](N(C)C)CC2`, the “Log 1/LD50” value in the data set listed under Mus musculus [2] is on record as 4.21.

Turning to `COc1cc2c(c(OC)c1OC)-c1ccc(SC)c(=O)cc1[C@@H](NC(=O)C(F)(F)F)CC2`, the 50% lethal dose (LD50) in data set [1] stood at 1.4 mg/kg; in [3], 3.5 mg/kg. For the same compound, the “Log 1/LD50” value in the data set listed under Mus musculus [2] was found to be 5.51.

`COC(=O)C(N)CCCC/N=c1\ccc2c(cc1O)[C@@H](NC(C)=O)CCc1cc(OC)c(OC)c(OC)c1-2` (some centres undefined): in the data set filed under Mus musculus [2], the “Log 1/LD50” value is on record as 3.

Take `COc1c(C#N)c2c(c(OC)c1OC)-c1ccc(OC)c(=O)cc1[C@@H](NC(C)=O)CC2`: the logP in the data set “physchem” came to 4.46. In addition, the “Log 1/LD50” value in the data set filed under Mus musculus [2] was determined as 3.8.

`CCOC(=O)N[C@H]1CCc2cc(OC)c(OC)c(OC)c2-c2ccc(SC)c(=O)cc21`: the “Log 1/LD50” value in the data set listed under Mus musculus [2] is listed as 4.19.

For the compound `COc1cc2c(c(OC)c1OC)-c1ccc(SC)c(=O)cc1[C@@H](NO[C@H]1O[C@@H](CO)[C@H](O)[C@@H](O)[C@@H]1O)CC2`, the logP in “physchem” amounted to 1.25. Also, the “Log 1/LD50” value in the data set listed under Mus musculus [2] is 3.71.

`COc1cc2c(c(OC)c1OC)-c1ccc(SC)c(=O)cc1[C@@H](NO[C@H]1O[C@@H](COC(C)=O)[C@H](OC(C)=O)[C@@H](OC(C)=O)[C@@H]1OC(C)=O)CC2`: the logP in “physchem” stood at 4.61. In addition, in the data set listed under Mus musculus [2], the “Log 1/LD50” value was 3.81.

Turning to `COc1cc2c(c(OC)c1OC)-c1ccc(OC)c(=O)cc1[C@@H](NC=O)CC2`, the LD50 amounted to 2.7 mg/kg in [1] and 5 mg/kg in data set [3]. In addition, the “Log 1/LD50” value in the data set filed under Mus musculus [2] is 5.16.

Consider `COc1cc2c(c(OC)c1OC)-c1ccc(OC)c(=O)cc1[C@@H](NC(=O)CCl)CC2`, for which, in the data set filed under Mus musculus [2], the “Log 1/LD50” value stood at 5.54.

Turning to `COc1cc2c(c(OC)c1OC)-c1ccc(SC)c(=O)cc1[C@@H](NC(=O)CO)CC2`, the “Log 1/LD50” value in the data set filed under Mus musculus [2] was determined as 5.66.

For `COc1cc2c(c(OC)c1OC)-c1ccc(OC)c(=O)cc1[C@@H](NC(=O)CF)CC2`, the “Log 1/LD50” value in the data set listed under Mus musculus [2] is 5.69.

`COc1cc2c(c(OC)c1OC)-c1ccc(OC)c(=O)cc1[C@@H](NC(=O)C(F)(F)F)CC2`: the LD50 in [1] was found to be 0.8 mg/kg; in [3], 1.9 mg/kg. Besides, the “Log 1/LD50” value in the data set listed under Mus musculus [2] was determined as 5.73.

For the compound `COc1c(CO)c2c(c(OC)c1OC)-c1ccc(OC)c(=O)cc1[C@@H](NC(C)=O)CC2`, in the data set “physchem”, the logP turned out to be 4.58. The “Log 1/LD50” value in the data set listed under Mus musculus [2] turned out to be 3.4.

Take `COc1cc2c(c(OC)c1OC)-c1cc/c(=N\Cc3ccccc3)c(O)cc1[C@@H](NC(C)=O)CC2`: the figures for the LD50 in data set [1] and in data set [3] were 25.1 mg/kg and 41 mg/kg, respectively. For the same compound, in the data set listed under Mus musculus [2], the “Log 1/LD50” value is on record as 4.28.

Consider `COC1=C2C(=CC(=O)C1OC)CC[C@H](NC(C)=O)c1cc(=O)c(OC)ccc12` (some centres undefined), for which the logP in “physchem” came to 0.93. Also, the “Log 1/LD50” value in the data set filed under Mus musculus [2] is 5.82.

In the case of `COc1cc2c(c(OC)c1OC)-c1ccc(OC)c(=O)cc1[C@@H](NC(=O)c1ccccc1)CC2`, the “Log 1/LD50” value in the data set filed under Mus musculus [2] amounted to 4.24.

For `CNc1ccc2c(cc1=O)[C@@H](NC(C)=O)CCc1cc(OC)c(OC)c(OC)c1-2`, the LD50 in data set [1] is 0.8 mg/kg; in data set [3], 1.4 mg/kg. Also, the “Log 1/LD50” value in the data set filed under Mus musculus [2] is recorded as 5.72.

As to `COc1cc2c(c(OC)c1OC)-c1ccc(SC)c(=O)cc1[C@@H](NC(=O)CCl)CC2`, the “Log 1/LD50” value in the data set filed under Mus musculus [2] was determined as 5.65.

Consider `COc1cc2c(c(OC)c1OC)-c1ccc(OC)c(=O)cc1[C@@H](NC(=O)c1ccc([N+](=O)[O-])cc1)CC2`, for which the values for the LD50 in [1] and in [3] were 20 mg/kg and 25 mg/kg, respectively. For the same compound, the “Log 1/LD50” value in the data set filed under Mus musculus [2] turned out to be 4.41.

Consider `COc1cc2c(c(OC)c1OC)-c1ccc(SC)c(=O)cc1[C@@H](NC(=O)NCCCl)CC2`, for which the “Log 1/LD50” value in the data set listed under Mus musculus [2] turned out to be 4.93.

For `COc1cc2c(c(OC)c1OC)-c1ccc(SC)c(=O)cc1[C@@H](NC(C)=O)CC2` [THIOCOLCHICINE], the LD50 in data set [1] and in data set [3] was 1 mg/kg each time. In the data set filed under Mus musculus [2], the “Log 1/LD50” value came to 5.62.

In the data set “physchem”, `COc1cc2c(c(OC)c1OC)-c1ccc(SC)c(=O)cc1[C@@H](NO[C@H]1OC[C@@H](O)[C@@H](O)[C@@H]1O)CC2` gave a logP of 1.4. Further, the LD50 in data set [1] worked out at 102 mg/kg; in data set [3], 251 mg/kg. Moreover, the “Log 1/LD50” value in the data set filed under Mus musculus [2] came to 3.98.

On to `COc1c(C=O)c2c(c(OC)c1OC)-c1ccc(OC)c(=O)cc1[C@@H](NC(C)=O)CC2`, for which the ILS at 3.12 mg/kg in the data set with Mus musculus [12] was 80%; in the data set with Mus musculus [19], 94%. Besides, the ILS at 1.56 mg/kg came to 60% with Mus musculus [13] and 75% in the data set on Mus musculus [17]. In addition, the ILS at 0.78 mg/kg turned out to be 54% in the data set with Mus musculus [14] and 49% in the data set on Mus musculus [16]. Moreover, the ILS at 12.5 mg/kg in the data set with Mus musculus [15] came out at 2%. Further, in “physchem”, the logP amounted to 5.92. The ILS at 0.39 mg/kg in the data set with Mus musculus [18] came to 51%; with Mus musculus [21] it was 49%. In addition, the ILS at 6.25 mg/kg in the data set on Mus musculus [20] and in the data set on Mus musculus [22] was 105% each time. The “Log 1/LD50” value in the data set listed under Mus musculus [2] worked out at 4.14.

The values above are taken from ChEMBL document CHEMBL1121841, “Toxicity quantitative structure--activity relationships of colchicines” (J Med Chem, 1981).
